In US11174252B2, “Heterocyclic compounds as kinase inhibitors” (priority 2018, dated 2021) one finds IC50 and inhibition data, which are given here for ten compounds.

For assay [1], the target named is CDK1 (cyclin B) (Homo sapiens (Human), UniProt P06493). The assay is described as follows: Z'-LYTE kinase assay. Format: biochemical. An excerpt: The following equations were used for Z′-LYTE™ Screening Assay Data Analysis.
Assay [2] has as its target CDK7 (cyclin H) (Homo sapiens (Human), UniProt P50613). The assay is described as follows: Adapta Assay. Type of assay: biochemical. The text has this: The following equations were used for Adapta™ Assay Data Analysis.
For assay [3], the target named is FMS kinase (Homo sapiens (Human), UniProt P07333). The assay is described as follows: LanthaScreen kinase assay (ATP, fluorescent-PolyGT substrate, TR-FRET). Type of assay: biochemical. On the technique in general: In TR-FRET formats the signal depends on donor and acceptor labels being close together.
Assay [4] has as its system MCF-7. The assay is described as follows: Cancer cell proliferation assay, single agent. The following applies: Homo sapiens. Format: cell-based.
In assay [5] the test system is DU4475. The assay is described as follows: Cancer cell proliferation assay, single agent. Type of assay: cell-based. The note with it: Homo sapiens.
Assay [6] addresses CDK2 (cyclin A) (Homo sapiens (Human), UniProt P24941). The assay is described as follows: Z'-LYTE kinase assay. Format: biochemical. How it is done:
IC50 values of compounds against CDK2 (cyclin A) were determined by Z'-LYTETM. […] The following equations were used for Z'-LYTETM Screening Assay Data Analysis.

The target of assay [7] is CDK5 (p25) (Homo sapiens (Human), UniProt Q00535). Description: Z'-LYTE kinase assay. Format: biochemical. An excerpt:
The following equations were used for Z'-LYTETM Screening Assay Data Analysis.

The subject of assay [8] is BT-549. Description: Cancer cell proliferation assay, single agent. Format: cell-based. The following applies: Homo sapiens.
For assay [9], the target named is CDK9 (cyclin K) (Homo sapiens (Human), UniProt P50750). Description: LanthaScreen Eu Kinase Binding Assay. The following applies: read-out: CDK9/K IC50.
Assay [10] deals with PI3Kδ kinase (Homo sapiens (Human), UniProt O00329). The assay is described as follows: PI3Kδ kinase ADP-Glo assay (Reaction Biology Corporation). The note with it: read-out: PI3Kδ IC50. (In general: ADP-Glo first removes unused ATP, then detects ADP through luciferase.)
Assay [11] concerns the target CDK2 (cyclin E1) (Homo sapiens (Human), UniProt P24941). Description: LanthaScreen Eu Kinase Binding Assay. The note with it: read-out: CDK2/E IC50.
The test system of assay [12] is A549. The assay is described as follows: Cancer cell proliferation assay, single agent. Format: cell-based. The following applies: Homo sapiens.
For assay [13], the system named is HCT-116. Description: Cancer cell proliferation assay, single agent. Format: cell-based. The following applies: Homo sapiens, Treatment Duration 72 h, read-out: IC50 HCT116.
Assay [14] deals with pRb (Ser780 phosphorylation state of RB1) in MCF-7 cells. The assay is described as follows: Determination of pRb levels (Ser780 phosphorylation of RB1, ELISA) in MCF-7 cells. Format: cell-based. The following applies: Homo sapiens, 24 h. How it is done:
[…] of the retinoblastoma protein (pRb) by cyclin D:Cdk4/6 complexes results in […] pRb, which is a clinically relevant biomarker associated with CDK4 or CDK6 inhibition. As a confirmatory measure of functional activity of CDK4/6, the Ser780 phosphorylation state of RB1 was assessed. MCF-7 cells were plated at 2.5×10^5 to 3.0×10^6 cells/well in 6-well cell-culture plates and incubated at 37° C. for 24 h in MEM medium supplemented with 10% FBS. Cells were treated for 24 h with a medium containing test compound at various concentrations (e.g., 0.01, 0.1, 1 μM) or with DMSO (≤1%) in duplicate. After incubation period, the media was removed, and cells were rinsed once with ice-cold PBS and lysed with 0.2 mL of Cell Lysis Buffer containing 1 mM PMSF and Protease Inhibitor. Protein concentration was estimated following Bradford method. The lysis and the pRB measurements were performed following the manufacturer's ELISA kit protocols and buffers (Cell Signaling Technology, Cat. No.: 13016C). pRb inhibition of test compounds were calculated as percentage of vehicle control.
On the technique in general: In an ELISA, binding on a coated surface is turned into a signal by an enzyme label.

Assay [15] addresses CDK4 (Homo sapiens (Human), UniProt P11802). Description: In vitro kinase inhibition, luminescence (ADP-Glo) with retinoblastoma substrate. Type of assay: biochemical.
The target of assay [16] is CDK6 (Homo sapiens (Human), UniProt Q00534). Description: biochemical. Format: biochemical.
The mark [17] stands for this setting: MCF7, MCF-7 cells, treated for 24-168 hours, read-out: IC50 (nM) MCF-7.
[18] abbreviates: DU-4475, DU4475 cells, treated for 24-168 hours, read-out: IC50 (nM) DU4475.
Setting [19] is: A549 cells, treated for 24-168 hours, read-out: IC50 (nM) A549.
Setting [20] is: DU-4475, read-out: IC50 (nM) DU4475.

Counter-ions that a name gives are not always drawn. Like-named read-outs stand apart in the source and are kept apart here.

Sequence of CDK9 (cyclin K) (P50750 whole entry): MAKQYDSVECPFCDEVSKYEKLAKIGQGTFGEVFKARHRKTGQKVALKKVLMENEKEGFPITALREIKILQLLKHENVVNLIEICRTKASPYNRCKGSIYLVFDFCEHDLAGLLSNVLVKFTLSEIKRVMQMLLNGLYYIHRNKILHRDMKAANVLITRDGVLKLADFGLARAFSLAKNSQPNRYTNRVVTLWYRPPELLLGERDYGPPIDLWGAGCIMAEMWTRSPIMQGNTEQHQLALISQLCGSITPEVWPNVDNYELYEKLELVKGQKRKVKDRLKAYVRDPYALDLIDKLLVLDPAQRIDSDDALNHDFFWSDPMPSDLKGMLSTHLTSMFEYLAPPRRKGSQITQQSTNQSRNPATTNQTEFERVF
Sequence of CDK9 (cyclin K) (O75909 whole entry partner): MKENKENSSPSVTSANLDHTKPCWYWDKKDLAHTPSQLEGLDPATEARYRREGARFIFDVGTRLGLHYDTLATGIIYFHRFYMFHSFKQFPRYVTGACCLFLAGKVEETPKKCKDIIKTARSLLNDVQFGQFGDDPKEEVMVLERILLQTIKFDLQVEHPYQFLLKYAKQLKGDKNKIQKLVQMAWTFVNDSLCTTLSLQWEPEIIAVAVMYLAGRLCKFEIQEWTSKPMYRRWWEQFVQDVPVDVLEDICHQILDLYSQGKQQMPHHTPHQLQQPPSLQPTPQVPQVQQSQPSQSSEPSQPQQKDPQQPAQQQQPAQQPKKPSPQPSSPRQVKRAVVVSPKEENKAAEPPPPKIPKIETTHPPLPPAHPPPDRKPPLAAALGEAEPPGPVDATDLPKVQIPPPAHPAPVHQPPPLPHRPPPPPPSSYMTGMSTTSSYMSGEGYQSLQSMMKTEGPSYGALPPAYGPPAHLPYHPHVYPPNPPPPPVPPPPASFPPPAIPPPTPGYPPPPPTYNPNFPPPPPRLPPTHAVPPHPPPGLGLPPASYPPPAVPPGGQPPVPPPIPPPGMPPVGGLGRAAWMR
Sequence of CDK5 (p25) (Q00535 whole entry): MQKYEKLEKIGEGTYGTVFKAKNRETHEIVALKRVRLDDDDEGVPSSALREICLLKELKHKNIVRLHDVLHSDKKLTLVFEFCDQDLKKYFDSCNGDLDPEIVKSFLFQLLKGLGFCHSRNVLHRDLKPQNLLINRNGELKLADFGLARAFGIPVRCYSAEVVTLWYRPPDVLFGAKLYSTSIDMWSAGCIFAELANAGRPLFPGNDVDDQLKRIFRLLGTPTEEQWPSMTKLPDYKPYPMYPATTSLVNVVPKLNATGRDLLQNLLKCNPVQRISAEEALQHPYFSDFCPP
Sequence of CDK5 (p25) (Q15078 99-307 partner): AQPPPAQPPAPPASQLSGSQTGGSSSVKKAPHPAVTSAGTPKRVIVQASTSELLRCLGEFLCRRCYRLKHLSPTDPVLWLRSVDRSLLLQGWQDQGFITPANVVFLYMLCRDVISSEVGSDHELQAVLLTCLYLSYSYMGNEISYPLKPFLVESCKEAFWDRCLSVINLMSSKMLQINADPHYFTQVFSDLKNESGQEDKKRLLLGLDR
Sequence of FMS kinase (P07333 20-972): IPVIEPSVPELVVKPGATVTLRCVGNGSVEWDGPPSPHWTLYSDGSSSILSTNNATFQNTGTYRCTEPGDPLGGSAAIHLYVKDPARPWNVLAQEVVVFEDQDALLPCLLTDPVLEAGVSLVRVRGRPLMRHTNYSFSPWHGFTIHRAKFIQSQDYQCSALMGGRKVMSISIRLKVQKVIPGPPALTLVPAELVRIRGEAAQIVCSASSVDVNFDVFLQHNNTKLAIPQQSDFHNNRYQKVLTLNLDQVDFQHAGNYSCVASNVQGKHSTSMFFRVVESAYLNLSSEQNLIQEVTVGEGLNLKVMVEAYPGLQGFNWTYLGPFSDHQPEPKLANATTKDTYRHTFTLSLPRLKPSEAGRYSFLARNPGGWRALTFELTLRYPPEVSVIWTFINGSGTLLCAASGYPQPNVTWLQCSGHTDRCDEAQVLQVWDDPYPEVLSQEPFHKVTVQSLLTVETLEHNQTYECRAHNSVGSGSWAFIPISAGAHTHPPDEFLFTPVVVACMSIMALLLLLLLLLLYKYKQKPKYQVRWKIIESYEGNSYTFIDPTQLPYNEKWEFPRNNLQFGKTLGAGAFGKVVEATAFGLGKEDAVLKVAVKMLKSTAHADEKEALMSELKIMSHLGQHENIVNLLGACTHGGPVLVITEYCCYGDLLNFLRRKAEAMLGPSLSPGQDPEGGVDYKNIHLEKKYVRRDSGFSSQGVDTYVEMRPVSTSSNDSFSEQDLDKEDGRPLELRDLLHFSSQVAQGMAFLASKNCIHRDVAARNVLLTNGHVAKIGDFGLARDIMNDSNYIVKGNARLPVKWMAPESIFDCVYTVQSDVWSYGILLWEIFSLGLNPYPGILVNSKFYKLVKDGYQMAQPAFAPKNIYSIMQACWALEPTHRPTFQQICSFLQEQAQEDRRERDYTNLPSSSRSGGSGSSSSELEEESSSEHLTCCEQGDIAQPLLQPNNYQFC
Sequence of CDK4 (P11802 whole entry): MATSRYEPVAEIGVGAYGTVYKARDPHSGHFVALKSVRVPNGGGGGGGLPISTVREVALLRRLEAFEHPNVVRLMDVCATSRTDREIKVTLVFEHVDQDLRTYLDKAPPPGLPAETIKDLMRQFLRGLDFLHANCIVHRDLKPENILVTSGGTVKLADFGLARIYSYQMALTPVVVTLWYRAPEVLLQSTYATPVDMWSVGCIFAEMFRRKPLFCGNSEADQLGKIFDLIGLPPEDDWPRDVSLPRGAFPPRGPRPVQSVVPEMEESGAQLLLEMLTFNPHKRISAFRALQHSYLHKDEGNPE
Sequence of CDK4 (P24385 whole entry partner): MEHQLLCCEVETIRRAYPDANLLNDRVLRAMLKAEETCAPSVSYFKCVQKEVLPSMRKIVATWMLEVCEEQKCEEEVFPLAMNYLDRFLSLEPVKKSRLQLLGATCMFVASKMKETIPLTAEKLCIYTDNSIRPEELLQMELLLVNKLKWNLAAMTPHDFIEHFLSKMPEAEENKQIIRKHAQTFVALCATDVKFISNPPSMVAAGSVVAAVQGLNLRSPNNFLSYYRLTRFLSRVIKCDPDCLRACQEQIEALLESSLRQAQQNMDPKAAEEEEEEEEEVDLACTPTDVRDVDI
Sequence of CDK1 (cyclin B) (P06493 whole entry): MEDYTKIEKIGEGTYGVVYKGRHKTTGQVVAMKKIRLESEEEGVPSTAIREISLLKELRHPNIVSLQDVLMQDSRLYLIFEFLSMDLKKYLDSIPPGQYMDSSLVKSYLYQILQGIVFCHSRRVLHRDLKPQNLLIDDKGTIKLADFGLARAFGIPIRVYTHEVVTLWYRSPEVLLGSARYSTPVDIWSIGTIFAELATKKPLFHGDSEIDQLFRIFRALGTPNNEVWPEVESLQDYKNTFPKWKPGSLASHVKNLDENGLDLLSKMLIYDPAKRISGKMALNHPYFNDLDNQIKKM
Sequence of CDK1 (cyclin B) (P14635 whole entry partner): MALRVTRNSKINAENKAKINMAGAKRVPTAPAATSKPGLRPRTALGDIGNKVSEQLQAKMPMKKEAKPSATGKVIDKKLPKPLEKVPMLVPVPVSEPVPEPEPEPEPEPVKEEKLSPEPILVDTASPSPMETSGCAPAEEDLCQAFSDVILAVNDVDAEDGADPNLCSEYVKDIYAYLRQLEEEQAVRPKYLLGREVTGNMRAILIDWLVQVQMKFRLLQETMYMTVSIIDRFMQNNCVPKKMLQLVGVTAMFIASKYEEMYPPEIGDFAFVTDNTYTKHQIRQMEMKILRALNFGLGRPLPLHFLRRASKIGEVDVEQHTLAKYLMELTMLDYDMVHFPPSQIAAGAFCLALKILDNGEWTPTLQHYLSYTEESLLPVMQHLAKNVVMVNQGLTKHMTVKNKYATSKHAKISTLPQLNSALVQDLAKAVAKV
Sequence of CDK7 (cyclin H) (P50613 whole entry): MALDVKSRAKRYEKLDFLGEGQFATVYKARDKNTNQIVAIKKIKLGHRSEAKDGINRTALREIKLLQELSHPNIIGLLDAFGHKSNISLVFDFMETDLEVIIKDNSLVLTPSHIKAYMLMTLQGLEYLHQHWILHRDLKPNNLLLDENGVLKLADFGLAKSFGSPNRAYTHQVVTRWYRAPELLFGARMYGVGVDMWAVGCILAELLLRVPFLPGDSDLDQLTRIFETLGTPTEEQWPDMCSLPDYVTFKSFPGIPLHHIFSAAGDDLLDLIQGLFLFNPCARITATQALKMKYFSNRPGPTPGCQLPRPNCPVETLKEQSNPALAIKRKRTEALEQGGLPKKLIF
Sequence of CDK7 (cyclin H) (P51946 whole entry partner): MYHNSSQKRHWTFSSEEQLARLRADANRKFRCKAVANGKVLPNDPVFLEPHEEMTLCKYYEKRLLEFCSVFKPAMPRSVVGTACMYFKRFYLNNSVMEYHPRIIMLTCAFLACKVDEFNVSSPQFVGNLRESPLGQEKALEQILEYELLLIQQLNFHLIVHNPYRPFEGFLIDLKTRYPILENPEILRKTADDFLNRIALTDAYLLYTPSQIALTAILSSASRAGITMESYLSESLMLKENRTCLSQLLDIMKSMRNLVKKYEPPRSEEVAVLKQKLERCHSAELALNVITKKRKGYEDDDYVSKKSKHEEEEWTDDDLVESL
Sequence of CDK7 (cyclin H) (P51948 whole entry partner): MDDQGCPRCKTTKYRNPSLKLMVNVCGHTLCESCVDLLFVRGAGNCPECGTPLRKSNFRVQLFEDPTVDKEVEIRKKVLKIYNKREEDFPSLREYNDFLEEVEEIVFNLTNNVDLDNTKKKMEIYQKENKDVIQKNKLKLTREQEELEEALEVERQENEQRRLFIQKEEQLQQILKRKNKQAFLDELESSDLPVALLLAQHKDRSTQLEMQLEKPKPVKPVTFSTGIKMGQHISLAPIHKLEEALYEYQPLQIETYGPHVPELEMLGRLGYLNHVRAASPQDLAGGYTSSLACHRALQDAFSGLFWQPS

Turning to `CC(C)N1CCOc2c(F)cc(-c3nc(Nc4ccc(N5CCC(N(C)C)CC5)nc4)ncc3F)cc21` [Compound 38, N-(6-(4-(dimethylamino)piperidin-1-yl)pyridin-3-yl)-5-fluoro-4-(8-fluoro-4-isopropyl-3,4-dihydro-2H-benzo[b][1,4]oxazin-6-yl)pyrimidin-2-amine], the IC50 in [1] is 3 nM; in assay [2] it was 163 nM; in [3] it was 40 nM; in [4] (setting [17]), 20 nM; in assay [5] (setting [18]), 45 nM.
In the case of `CC(C)N1CCOc2c(F)cc(-c3nc(Nc4ccc(N5CCC(N(C)C)CC5)c(F)c4)ncc3F)cc21` [Compound 25, N-(4-(4-(dimethylamino)piperidin-1-yl)-3-fluorophenyl)-5-fluoro-4-(8-fluoro-4-isopropyl-3,4-dihydro-2H-benzo[b][1,4]oxazin-6-yl)pyrimidin-2-amine], the IC50 in [1] stood at 6.7 nM; in assay [6], 3.4 nM; in assay [7] it was 3.6 nM; in assay [2], 145 nM; in assay [3], 5 nM; in [4] (setting [17]), 25 nM. Further, the IC50 in [8] (BT-549 cells, treated for 24-168 hours, read-out: IC50 (nM) BT-549) was less than 1110 nM; in assay [5] (setting [18]), 46 nM; in assay [9], 5 nM; in assay [10], 6100 nM.
For the compound `CC(C)N1CCOc2c(F)cc(-c3nc(Nc4ccc(N5CCNCC5)c(F)c4)ncc3F)cc21` [Compound 12, 5-fluoro-N-(3-fluoro-4-(piperazin-1-yl)phenyl)-4-(8-fluoro-4-isopropyl-3,4-dihydro-2H-benzo[b][1,4]oxazin-6-yl)pyrimidin-2-amine hydrochloride], the IC50 in assay [1] was 3.9 nM; in assay [6], 0.7 nM; in [11], 7.2 nM; in assay [3], 29 nM; in assay [12] (A549, 72 h, read-out: IC50 A549), less than 13 nM; in [13], less than 13 nM. For the same compound, the IC50 in assay [4] (MCF7, 72 h, read-out: IC50 MCF-7) was less than 10 nM; in [8] (BT-549, 24 h, read-out: IC50 BT-549), 230 nM; in assay [5] (DU-4475, 168 h, read-out: IC50 DU4475), 40 nM; in [10], 674 nM. Besides, in assay [14] (MCF7, 0.01 μM), the inhibition at 0.01 µM was -5%. Further, the inhibition at 0.1 µM in assay [14] (MCF7, 0.1 μM) stood at 81%. For the same compound, the inhibition at 1 µM in [14] (MCF7, 1 μM) is 81%.
On to `CC(C)N1CCOc2c(F)cc(-c3nc(Nc4ccn(C5CCNCC5)c(=O)c4)ncc3F)cc21` [Compound 437, 4-((5-fluoro-4-(8-fluoro-4-isopropyl-3,4-dihydro-2H-benzo[b][1,4]oxazin-6-yl)pyrimidin-2-yl)amino)-1-(piperidin-4-yl)pyridin-2(1H)-one], for which the IC50 is 9 nM in assay [1]; 3 nM in assay [6]; 7.7 nM in [7]; 85 nM in assay [2]; 3 nM in assay [3]; 45 nM in [4] (setting [17]).
Turning to `CC(C)N1CCOc2c(F)cc(-c3nc(Nc4ccc(C5CCN(C)CC5)cn4)ncc3F)cc21` [Compound 442, 5-fluoro-4-(8-fluoro-4-isopropyl-3,4-dihydro-2H-benzo[b][1,4]oxazin-6-yl)-N-(5-(1-methylpiperidin-4-yl)pyridin-2-yl)pyrimidin-2-amine], the IC50 in assay [15] turned out to be 2 nM; in assay [16], 1 nM; in [1], 73 nM; in assay [6], 7 nM; in [7] it was 27 nM; in assay [2], 1160 nM. The IC50 in assay [3] is 353 nM; in [12] (setting [19]), 465 nM; in assay [4] (setting [17]), 125 nM; in assay [5] (setting [18]) it was 503 nM; in [9] it was 41 nM; in assay [10], more than 50000 nM.
For `CC(C)N1CCOc2c(F)cc(-c3nc(Nc4ccc(N5CCOCC5)cn4)ncc3F)cc21` [Compound 446, 5-fluoro-4-(8-fluoro-4-isopropyl-3,4-dihydro-2H-benzo[b][1,4]oxazin-6-yl)-N-(5-morpholinopyridin-2-yl)pyrimidin-2-amine], the IC50 was 3.9 nM in [15]; 8.8 nM in assay [16]; 679 nM in assay [1]; 68 nM in [6]; more than 10000 nM in assay [2]; 1120 nM in assay [3]. For the same compound, the IC50 in assay [4] (setting [17]) amounted to 850 nM; in [5] (setting [18]), 385 nM; in assay [9], 280 nM; in assay [10], 21800 nM.
On to `CC(C)N1CCOc2c(F)cc(-c3nc(Nc4ccc(N5CCC(N(C)C)CC5)cn4)ncc3F)cc21` [Compound 436, N-(5-(4-(dimethylamino)piperidin-1-yl)pyridin-2-yl)-5-fluoro-4-(8-fluoro-4-isopropyl-3,4-dihydro-2H-benzo[b][1,4]oxazin-6-yl)pyrimidin-2-amine], for which the IC50 in assay [1] was 82 nM; in assay [6], 8 nM; in [7], 38 nM; in [2], 2360 nM; in assay [3] it was more than 5000 nM; in assay [12] (setting [19]), 390 nM. Besides, the values for the IC50 in assay [4] (setting [17]), in [5] (setting [18]) and in assay [9] were 165 nM, 383 nM and 73 nM, respectively.
As for `CC(C)N1CCOc2c(F)cc(-c3nc(Nc4ccc(N5CCC(O)CC5)cn4)ncc3F)cc21` [Compound 447, 1-(6-((5-fluoro-4-(8-fluoro-4-isopropyl-3,4-dihydro-2H-benzo[b][1,4]oxazin-6-yl)pyrimidin-2-yl)amino)pyridin-3-yl)piperidin-4-ol], the IC50 in [15] is 1.1 nM; in assay [16], 1.6 nM; in assay [1], 238 nM; in assay [6], 36 nM; in [2], more than 10000 nM; in [3], 1680 nM. Besides, the IC50 is 300 nM in assay [4] (setting [17]), 230 nM in [5] (setting [18]), 243 nM in assay [9] and more than 50000 nM in [10].
Regarding `Fc1cnc(Nc2ccc3c(n2)CCNC3)nc1-c1cc(F)c2c(c1)N(C1CCC1)CCO2` [Compound 482, N-(4-(4-cyclobutyl-8-fluoro-3,4-dihydro-2H-benzo[b][1,4]oxazin-6-yl)-5-fluoropyrimidin-2-yl)-5,6,7,8-tetrahydro-1,6-naphthyridin-2-amine], the IC50 in [15] amounted to 3 nM; in [16], 16 nM; in [1], 155 nM; in assay [6], 29 nM; in assay [3] it was 1750 nM; in [4] (MCF7, read-out: IC50 (nM) MCF-7), 230 nM. Moreover, the values for the IC50 in [5] (setting [20]) and in assay [10] were 540 nM and more than 50000 nM, respectively.
Consider `CC(C)N1CCOc2c(F)cc(-c3nc(Nc4ccc(C5CCN(C)CC5)nc4)ncc3F)cc21` [Compound 33, 5-fluoro-4-(8-fluoro-4-isopropyl-3,4-dihydro-2H-benzo[b][1,4]oxazin-6-yl)-N-(6-(1-methylpiperidin-4-yl)pyridin-3-yl)pyrimidin-2-amine], for which the IC50 came to 1.5 nM in [15]; 1.5 nM in assay [16]; 3 nM in [1]; 2 nM in assay [6]; 1 nM in assay [7]; 54 nM in assay [2]. Besides, the IC50 was 48 nM in assay [3], less than 14 nM in assay [4] (setting [17]), 40 nM in assay [5] (setting [20]) and 2 nM in assay [9].

For orientation: inhibition means the drop in the measured response relative to a control, in per cent.
